Results from PMC7170299, “Design, synthesis, molecular modelling and biological evaluation of novel 3-(2-naphthyl)-1-phenyl-1H-pyrazole derivatives as potent antioxidants and 15-Lipoxygenase inhibitors” (Journal of Enzyme Inhibition and Medicinal Chemistry, 2020).

How the values were obtained:
[1] = Superoxide scavenging assay (pyrogallol autoxidation); conditions: for Superoxide scavenging potency relative to ascorbic acid: folds of ascorbic acid; for Superoxide IC50: mean ± SEM of three experiments, pyrogallol autoxidation, 325 nm
Soybean 15-LOX enzyme = molecular target: T1, Soybean 15-LOX enzyme (Glycine max, UniProt P08170); assay: In vitro lipoxygenase inhibition (Cayman lipoxygenase inhibitor screening assay kit); assay type: biochemical; conditions: for IC50: mean ± SEM of three experiments, substrate arachidonic acid; for 15-LOX inhibition potency relative to quercetin: folds that of quercetin
T1 construct: purchased Cayman Chemical 760700
T1 sequence (P08170 1-839): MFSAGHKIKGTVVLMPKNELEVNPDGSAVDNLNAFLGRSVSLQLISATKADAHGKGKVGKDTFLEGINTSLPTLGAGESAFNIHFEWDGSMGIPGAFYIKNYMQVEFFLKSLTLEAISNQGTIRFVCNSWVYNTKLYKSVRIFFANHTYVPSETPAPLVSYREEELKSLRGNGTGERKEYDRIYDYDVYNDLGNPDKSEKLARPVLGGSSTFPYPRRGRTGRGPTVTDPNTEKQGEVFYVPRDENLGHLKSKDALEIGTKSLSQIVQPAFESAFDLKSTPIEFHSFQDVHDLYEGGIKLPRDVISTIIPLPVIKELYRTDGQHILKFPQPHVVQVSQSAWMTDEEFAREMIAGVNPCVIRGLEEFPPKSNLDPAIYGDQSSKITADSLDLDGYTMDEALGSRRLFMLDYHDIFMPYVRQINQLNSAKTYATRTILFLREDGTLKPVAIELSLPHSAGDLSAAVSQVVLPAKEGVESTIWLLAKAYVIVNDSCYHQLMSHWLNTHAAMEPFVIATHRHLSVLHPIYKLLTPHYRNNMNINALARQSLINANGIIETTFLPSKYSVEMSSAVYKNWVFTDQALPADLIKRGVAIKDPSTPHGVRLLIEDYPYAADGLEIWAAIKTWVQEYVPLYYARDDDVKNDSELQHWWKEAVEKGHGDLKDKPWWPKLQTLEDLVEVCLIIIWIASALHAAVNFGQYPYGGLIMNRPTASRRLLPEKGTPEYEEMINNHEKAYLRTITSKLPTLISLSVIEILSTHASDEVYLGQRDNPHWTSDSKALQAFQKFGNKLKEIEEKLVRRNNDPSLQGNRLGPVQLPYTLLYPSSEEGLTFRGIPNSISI
Procedure: The assay was performed using Cayman’s lipoxygenase inhibitor screening assay kit (Catalog No. 760700, Cayman Chemical, USA) according to the manufacturer’s instructions. Briefly, 90 µL of 15-LOX was pipetted into a 96-well plate. Next, 10 µL of test compound at concentrations (2.5, 5.0 and 10 µM) dissolved in DMSO were added to each well. The reaction was initiated by adding 10 µL substrate (AA) and the plate was placed on a shaker for at least 5 minutes. Finally, 100 µL of chromogen (prepared according to manufacturer’s instructions) was added to each well to stop enzyme catalysis and develop the reaction. 100 µL of Assay buffer (0.1 M Tris-HCl, pH7.4) was used in blank wells. […] The absorbance of the solution was measured at λ 490–500 nm. The percentage inhibition was calculated according to the following equation: % inhibition =[(IA−Ainhibitor sample)/IA]×100 where (IA) is the 100% initial activity and (Ainhibitor sample) is the absorbance of the test sample. Dose–response curve was plotted between % inhibition and the drug concentration. The non-linear dose–response curve was used for calculating drug concentration showing 50% enzyme inhibition.

Row | SMILES | melting point | IC50 (Soybean 15-LOX enzyme) | 15-LOX inhibition potency relative to quercetin (Soybean 15-LOX enzyme) | Superoxide scavenging potency relative to ascorbic acid [1] | Superoxide IC50 [1]
1 | c1ccc(C2=NNC(c3cn(-c4ccccc4)nc3-c3ccc4ccccc4c3)C2)cc1 (stereo not shown) [Compound 3a, 3′-Naphthalen-2-yl-5,1′-diphenyl-3,4-dihydro-2H,1’H-[3,4′]bipyrazole] | 172 to 173 °C | 2230 ± 70 nM |  | 2.5 folds | 50.42 ± 1.45 µg/mL
2 | Cc1ccc(C2=NOC(c3cn(-c4ccccc4)nc3-c3ccc4ccccc4c3)C2)cc1 (stereo not shown) [Compound 5c, 5-(3-Naphthalen-2-yl-1-phenyl-1H-pyrazol-4-yl)-3-p-tolyl-4,5-dihydroisoxazole] | 181 to 182 °C | 4230 ± 70 nM |  | 2.8 folds | 44.54 ± 1.44 µg/mL
3 | COc1ccc(C2=NOC(c3cn(-c4ccccc4)nc3-c3ccc4ccccc4c3)C2)cc1 (stereo not shown) [Compound 5b, 3-(4-Methoxyphenyl)-5-(3-naphthalen-2-yl-1-phenyl-1H-pyrazol-4-yl)-4,5-dihydro isoxazole] | 197 to 198 °C | 4370 ± 90 nM |  |  | 101.8 ± 1.39 µg/mL
4 | Cc1ccc(C2=NN(C(N)=S)C(c3cn(-c4ccccc4)nc3-c3ccc4ccccc4c3)C2)cc1 (stereo not shown) [Compound 6c, 3′-Naphthalen-2-yl-1′-phenyl-5-p-tolyl-3,4-dihydro-1’H-[3,4′]bipyrazolyl-2-carbo thioic acid amide] | 184 to 185 °C | 2100 ± 60 nM |  |  | 140.17 ± 1.52 µg/mL

Now from value to compound, other results behind:

Row | melting point | IC50 (Soybean 15-LOX enzyme) | 15-LOX inhibition potency relative to quercetin (Soybean 15-LOX enzyme) | SMILES | Superoxide scavenging potency relative to ascorbic acid [1] | Superoxide IC50 [1]
5 | 198 to 199 °C | 1500 ± 60 nM | 2.2 folds | NC(=S)N1N=C(c2ccccc2)CC1c1cn(-c2ccccc2)nc1-c1ccc2ccccc2c1 (stereo not shown) [Compound 6a, 3′-Naphthalen-2-yl-5,1′-diphenyl-3,4-dihydro-1’H-[3,4′]bipyrazolyl-2-carbothioic acid amide] |  | 127.25 ± 1.47 µg/mL
6 | 172 to 173 °C | 3530 ± 70 nM |  | Clc1ccc(C2=NN(c3ccccc3)C(c3cn(-c4ccccc4)nc3-c3ccc4ccccc4c3)C2)cc1Cl (stereo not shown) [Compound 4e, 5-(3,4-Dichlorophenyl)-3′-naphthalen-2-yl-2,1′-diphenyl-3,4-dihydro-2H,1’H-[3,4′]-bipyrazole] |  | 130.19 ± 1.1 µg/mL
7 | 180 to 181 °C | 1570 ± 30 nM | 2.1 folds | NC(=S)N1N=C(c2ccc(Cl)c(Cl)c2)CC1c1cn(-c2ccccc2)nc1-c1ccc2ccccc2c1 (stereo not shown) [Compound 6e] |  | 87.31 ± 1.58 µg/mL
